Earlier results on 1 compound are cited in patent publication US11155746B2, “Compositions and methods for reducing hydrogen sulfide and microbial influenced corrosion in crude oil, natural gas, and in associated equipment” (priority 2017, dated 2021).

The conditions of the data set: atmospheric exposure.

In the case of `S` [H2S, hydrogen sulfide], the “exposure concentration that can be rapidly fatal” value is given as “above 600 ppm” and the “exposure concentration that can cause damage to internal organs” value is recorded as “above 100 ppm”.
